# Data as given in patent US11046694B2, “Compounds and methods for treating bacterial infections” (Entasis Therapeutics, Inc., priority 2018, dated 2021).
# Counter-ions that a name gives are not always drawn. Like-named read-outs stand apart in the source and are kept apart here.
# What was measured:
# [1] = system: A. baumannii (ARC3495); assay: MIC against A. baumannii; conditions: Acinetobacter baumannii, read-out: A. baumannii MIC (ARC3495) (mg/L)
# [2] = system: P. aeruginosa WT (PAO1); assay: MIC, CLSI broth microdilution, P. aeruginosa; assay type: cell-based; conditions: Pseudomonas aeruginosa
# [3] = target: P. aeruginosa PBP1a (Pseudomonas aeruginosa, UniProt Q07806); assay type: biochemical; conditions: P. aeruginosa PBP1a 60 nM, BOCILLIN FL 30 nM, pH 7.0
# [4] = system: K. pneumoniae (ATCC700603); assay: MIC against K. pneumoniae; conditions: Klebsiella pneumoniae, ATCC700603, read-out: K. pneumoniae MIC (ATCC700603)
# [5] = target: P. aeruginosa PBP3 (Pseudomonas aeruginosa, UniProt G3XD46); assay type: biochemical; conditions: P. aeruginosa PBP3 60 nM, BOCILLIN FL 30 nM, pH 7.0
# [6] = system: E. coli (ATCC25922); assay: MIC against E. coli; conditions: Escherichia coli, ATCC25922, read-out: E. coli MIC (ATCC25922) (mg/L)
# [7] = PAO1, CLSI broth microdilution, read-out: P. aeruginosa WT (PAO1) MIC
# Chain of P. aeruginosa PBP3 (G3XD46 whole entry): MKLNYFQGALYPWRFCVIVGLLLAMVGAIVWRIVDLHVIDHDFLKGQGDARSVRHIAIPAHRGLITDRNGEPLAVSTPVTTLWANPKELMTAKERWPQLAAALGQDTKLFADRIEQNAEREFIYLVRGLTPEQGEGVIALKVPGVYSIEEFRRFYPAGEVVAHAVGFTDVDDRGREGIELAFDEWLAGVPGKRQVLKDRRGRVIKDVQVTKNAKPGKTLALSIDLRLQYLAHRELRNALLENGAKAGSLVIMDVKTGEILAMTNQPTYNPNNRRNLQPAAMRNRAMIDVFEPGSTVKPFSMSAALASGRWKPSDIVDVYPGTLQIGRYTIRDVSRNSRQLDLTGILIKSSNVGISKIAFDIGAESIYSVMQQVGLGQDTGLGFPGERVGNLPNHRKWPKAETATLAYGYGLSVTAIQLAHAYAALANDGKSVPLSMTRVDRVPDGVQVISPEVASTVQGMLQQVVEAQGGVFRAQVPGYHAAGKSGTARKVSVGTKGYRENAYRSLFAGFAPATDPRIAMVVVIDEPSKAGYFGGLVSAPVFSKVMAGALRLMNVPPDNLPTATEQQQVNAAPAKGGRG
# Chain of P. aeruginosa PBP1a (Q07806 whole entry): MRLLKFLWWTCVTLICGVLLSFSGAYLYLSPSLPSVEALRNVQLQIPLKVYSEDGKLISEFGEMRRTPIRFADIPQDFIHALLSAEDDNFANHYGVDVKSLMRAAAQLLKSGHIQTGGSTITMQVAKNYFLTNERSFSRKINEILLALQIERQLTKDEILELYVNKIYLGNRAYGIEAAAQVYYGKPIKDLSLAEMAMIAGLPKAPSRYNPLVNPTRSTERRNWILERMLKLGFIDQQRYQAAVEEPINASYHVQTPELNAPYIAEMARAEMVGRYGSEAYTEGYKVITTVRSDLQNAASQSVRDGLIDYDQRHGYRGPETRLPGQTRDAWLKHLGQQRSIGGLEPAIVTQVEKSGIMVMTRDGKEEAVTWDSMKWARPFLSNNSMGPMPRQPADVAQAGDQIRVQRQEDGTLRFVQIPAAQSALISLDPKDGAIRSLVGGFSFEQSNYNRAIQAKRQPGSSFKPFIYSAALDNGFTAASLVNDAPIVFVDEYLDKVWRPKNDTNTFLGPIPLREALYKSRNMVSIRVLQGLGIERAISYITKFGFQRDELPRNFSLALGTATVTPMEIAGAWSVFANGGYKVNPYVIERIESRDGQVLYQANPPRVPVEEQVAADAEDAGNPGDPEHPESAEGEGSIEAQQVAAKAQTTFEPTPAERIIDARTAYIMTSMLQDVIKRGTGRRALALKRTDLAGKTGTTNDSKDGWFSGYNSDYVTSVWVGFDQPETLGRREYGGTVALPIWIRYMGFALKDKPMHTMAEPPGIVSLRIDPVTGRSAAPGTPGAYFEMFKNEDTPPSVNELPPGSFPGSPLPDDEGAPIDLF
SMILES,MIC [1] [mg/L],"MIC [2, 7] [mg/L]","PBP1a acylation rate, k(on) (M^−1 · s^−1) [3]",MIC [4] [µg/mL],"PBP3 acylation rate, k(on) (M^−1 · s^−1) [5]",MIC [6] [mg/L],"MIC ([2]; PAO1, read-out: P. aeruginosa WT (PAO1) MIC (mg/L)) [mg/L]"
"CN/C(=N\OC(=O)NCCN)[C@@H]1c2c(cnn2C)[C@@H]2CN1C(=O)N2OS(=O)(=O)O (racemic) [Example 18, (4R,8S)-8-((Z)—N′-(((2-aminoethyl)carbamoyl)oxy)-N-methylcarbamimidoyl)-1-methyl-6-oxo-4,8-dihydro-1H-4,7-methanopyrazolo[3,4-e][1,3]diazepin-5(6H)-yl hydrogen sulfate]",8 to 16,< 8,"** (** represents a k(on) of 100 to 10,000 M^−1 · s^−1)",8 to 16,"*** (*** represents a k(on) > 10,000 M^−1 · s^−1)",< 8,
"CN/C(=N\OC(C)=O)[C@@H]1c2c(cnn2C)[C@@H]2CN1C(=O)N2OS(=O)(=O)O [Example 69, pyridium (4R,8S)-8-((Z)—N′-acetoxy-N-methylcarbamimidoyl)-1-methyl-6-oxo-4,8-dihydro-1H-4,7-methanopyrazolo[3,4-e][1,3]diazepin-5(6H)-hydrogen sulfate]",> 16,> 16,"** (** represents a k(on) of 100 to 10,000 M^−1 · s^−1)",8 to 16,"*** (*** represents a k(on) > 10,000 M^−1 · s^−1)",8 to 16,
CN/C(=N\OC(=O)NC1CNC1)[C@@H]1c2c(cnn2C)[C@@H]2CN1C(=O)N2OS(=O)(=O)O (racemic) [Example 26],< 8,< 8,"** (** represents a k(on) of 100 to 10,000 M^−1 · s^−1)",< 8,"*** (*** represents a k(on) > 10,000 M^−1 · s^−1)",< 8,
CN/C(=N\OC(=O)NCC(N)=O)[C@@H]1c2c(cnn2C)[C@@H]2CN1C(=O)N2OS(=O)(=O)O (racemic) [Example 23],> 16,8 to 16,"** (** represents a k(on) of 100 to 10,000 M^−1 · s^−1)",8 to 16,"*** (*** represents a k(on) > 10,000 M^−1 · s^−1)",8 to 16,
CNC(=O)O/N=C(\NC)[C@@H]1c2c(cnn2C)[C@@H]2CN1C(=O)N2OS(=O)(=O)O (racemic) [Example 20],8 to 16,,"** (** represents a k(on) of 100 to 10,000 M^−1 · s^−1)",> 16,"*** (*** represents a k(on) > 10,000 M^−1 · s^−1)",8 to 16,8 to 16
"CN/C(=N\OCC(=O)NOS(=O)(=O)O)[C@@H]1c2c(cnn2C)[C@@H]2CN1C(=O)N2OS(=O)(=O)O [Example 73, pyridium ((2-((((Z)-((4R,8S)-1-methyl-6-oxo-5-(sulfooxy)-4,5,6,8-tetrahydro-1H-4,7-methanopyrazolo[3,4-e][1,3]diazepin-8-yl)(methylamino)methylene)amino)oxy)acetamido)oxy)sulfonic acid]",> 16,8 to 16,"** (** represents a k(on) of 100 to 10,000 M^−1 · s^−1)",8 to 16,"*** (*** represents a k(on) > 10,000 M^−1 · s^−1)",8 to 16,
CN/C(=N\OC(=O)NCCCN)[C@@H]1c2c(cnn2C)[C@@H]2CN1C(=O)N2OS(=O)(=O)O (racemic) [Example 25],8 to 16,< 8,"** (** represents a k(on) of 100 to 10,000 M^−1 · s^−1)",> 16,"*** (*** represents a k(on) > 10,000 M^−1 · s^−1)",8 to 16,
CN/C(=N\OC(=O)N[C@H]1CCNC1)[C@@H]1c2c(cnn2C)[C@@H]2CN1C(=O)N2OS(=O)(=O)O (racemic) [Example 24],8 to 16,< 8,"** (** represents a k(on) of 100 to 10,000 M^−1 · s^−1)",8 to 16,"*** (*** represents a k(on) > 10,000 M^−1 · s^−1)",8 to 16,
CN/C(=N\OCC(=O)NC1CNC1)[C@@H]1c2c(cnn2C)[C@@H]2CN1C(=O)N2OS(=O)(=O)O (racemic) [Example 61],> 16,8 to 16,* (* represents a k(on) < 100 M^−1 · s^−1),> 16,"** (** represents a k(on) of 100 to 10,000 M^−1 · s^−1)",< 8,
CN/C(=N\OC(=O)NC(C)(C)C(=O)O)[C@@H]1c2c(cnn2C)[C@@H]2CN1C(=O)N2OS(=O)(=O)O (racemic) [Example 34],> 16,8 to 16,"** (** represents a k(on) of 100 to 10,000 M^−1 · s^−1)",> 16,"*** (*** represents a k(on) > 10,000 M^−1 · s^−1)",8 to 16,
"CN/C(=N\O)[C@@H]1c2c(cnn2CCNC(C)=O)[C@@H]2CN1C(=O)N2OS(=O)(=O)O [Example 48, (4R,8S)-1-(2-acetamidoethyl)-8-((Z)—N′-hydroxy-N-methylcarbamimidoyl)-6-oxo-4,8-dihydro-1H-4,7-methanopyrazolo[3,4-e][1,3]diazepin-5(6H)-yl hydrogen sulfate]",> 16,8 to 16,* (* represents a k(on) < 100 M^−1 · s^−1),> 16,"*** (*** represents a k(on) > 10,000 M^−1 · s^−1)",< 8,
"CN/C(=N\O)[C@@H]1c2c(cnn2CC(N)=O)[C@@H]2CN1C(=O)N2OS(=O)(=O)O [Example 50, (4R,8S)-1-(2-amino-2-oxoethyl)-8-((Z)—N′-hydroxy-N-methylcarbamimidoyl)-6-oxo-4,8-dihydro-1H-4,7-methanopyrazolo[3,4-e][1,3]diazepin-5(6H)-yl sulfate]",8 to 16,< 8,"** (** represents a k(on) of 100 to 10,000 M^−1 · s^−1)",< 8,"*** (*** represents a k(on) > 10,000 M^−1 · s^−1)",< 8,
"CN/C(=N\OC(=O)NCc1cnn(C)c1)[C@@H]1c2c(cnn2C)[C@@H]2CN1C(=O)N2OS(=O)(=O)O (racemic) [Example 15, (4R,8S)-1-methyl-8-((Z)—N-methyl-N′-((((1-methyl-1H-pyrazol-4-yl)methyl)carbamoyl)oxy)carbamimidoyl)-6-oxo-4,8-dihydro-1H-4,7-methanopyrazolo[3,4-e][1,3]diazepin-5(6H)-yl hydrogen sulfate]",> 16,> 16,"** (** represents a k(on) of 100 to 10,000 M^−1 · s^−1)",> 16,"*** (*** represents a k(on) > 10,000 M^−1 · s^−1)",< 8,
"CN/C(=N\O)[C@@H]1c2c(cnn2C/C=N/OCCN)[C@@H]2CN1C(=O)N2OS(=O)(=O)O (racemic) [Example 49, 1-((E)-2-((2-aminoethoxy)imino)ethyl)-8-((Z)—N′-hydroxy-N-methylcarbamimidoyl)-6-oxo-4,8-dihydro-1H-4,7-methanopyrazolo[3,4-e][1,3]diazepin-5(6H)-yl hydrogen sulfate]",8 to 16,< 8,* (* represents a k(on) < 100 M^−1 · s^−1),8 to 16,"*** (*** represents a k(on) > 10,000 M^−1 · s^−1)",8 to 16,
